Where a name gives a salt, the structure may show the parent alone. Read-outs that look alike come from different tables or passages of the source.
What was measured:
[1] = target: T1, acetylcholinesterase from Electrophorus electricus (Electric eel) (Electrophorus electricus, UniProt O42275); test: Inhibition assay for acetylcholinesterase activity (modified Ellman, ATCI/DTNB, 412 nm); type: biochemical
T1 construct: purchased Sigma (St. Louis, MO, USA)
Procedure: The assay was performed with some modifications of Ellman et al (1961). […] The hydrolysis was monitored by the formation of yellow color (5-thio-2-nitrobenzoate anion) and the absorbance was measured at 412 nm by using spectrophotometer (UV-1800, Shimadzu, Japan).
The inhibitory activity assay was carried out with slight modifications. […] The inhibitory percentage of AChE was calculated as follows:
%inhibition = 100[A − B] − [C − D]/[A − B]
A is the OD without test substance, B is the OD without test substance and AChE, C is the OD with the test substance, D is the OD at 412 nm with the test substance and without AChE.
The relative percentage inhibition were estimated in triplicates and values were expressed as mean ± SEM (n = 3).

immobilized AChE [2] = target: T2, immobilized AChE (Electrophorus electricus, UniProt O42275); test: biochemical; type: binding; settings: for Kd / Ka1 / Kd1: 25°C
T2 construct: purchased Sigma (St. Louis, MO, USA)
Procedure: (§1) The protocol was followed with some modifications for enzyme immobilization, scouting and screening. SPR interactions were performed using a Biacore X100 optical biosensor (GE Healthcare Life Sciences, Bangalore, India) at 25°C. SPR analysis was carried out in PBS (200 mM, pH 7.7) from the analyte stock solutions, working solutions were diluted before passing on to the sensor surface. Data collection was done with the help of Biacore control software ver 2.0.2 Sets of experiments were carried out by monitoring change in the refractive index as a function of time under constant flow conditions. The relative amount of inhibitor bound to the AChE was determined by measuring the net increase in the refractive index over time compared to buffer as a control. During each run, there is an inline subtraction of the reference surface. Change is reported regarding response units (RU). The surface was washed with 5 cycles of running buffer (PBS) before next analytes.
(§2) As per pH scouting studies, AChE enzyme (100μg) was dissolved in 100 mM sodium acetate buffer pH 4.5 and was immobilized to the CM5 sensor chip by using the amine coupling method. The flow rate was kept constant during immobilization at 10 μlmin^-1, the surface of flow cell was activated by 1:1 mixture of 100 mM EDC and 100 mM NHS (both dissolved in water) for 7 min. AChE was injected for 7 min, and residual activated carboxymethyl groups were blocked on the sensor surface by 7 min injection of 1M ethanolamine, pH 8.5. In this particular study, flow cell 1 was blank immobilized (without protein) and used as a reference. Inline and double referencing was done for the buffer RU compensation.
(§3) Here the model describes this competitive situation and returns two sets of rate constants, one for each reaction taking into consideration two different analytes. The same buffer was used as running buffer. The constant flow rate was maintained throughout the kinetics (45 μlmin^-1), contact time and dissociation time was kept at 120 second (s). 10 mM glycine pH 3.0 for the time period of 30 s was used for regeneration. The experiments were carried at different concentrations of inhibitors.
(§4) The analysis of data was carried out with X100 evaluation software ver 2.0.2 and fitted to two state fit for individual molecules and for competitive experiments a heterogeneous analyte binding model.

AChE [3] = target: T3, AChE (Electrophorus electricus, UniProt O42275); test: Far-UV circular dichroism of AChE with small molecules (secondary structure composition); settings: for Turns of AChE in presence of the molecule / α helix of AChE in presence of the molecule / Random of AChE in presence of the molecule / β sheets of AChE in presence of the molecule: single molecule; for Turns of AChE in presence of the molecule: AChE alone 0; for α helix of AChE in presence of the molecule: AChE alone 3.6±0.012; for Random of AChE in presence of the molecule: AChE alone 44.2±0.46; for β sheets of AChE in presence of the molecule: AChE alone 52.3±0.6; for change in secondary structure of AChE compared to control enzyme: CD, far-UV
T3 construct: purchased Sigma (St. Louis, MO, USA)
Procedure: Protein solutions 0.5 milligram per milliliter (mgml^-1) was prepared in 10 mM PBS at pH 7.7. Scans were performed at room temperature using 0.1 cm path length quartz cuvette with 8 s differential integration time at a scan rate of 100 nano meter per minute (nm min^-1). The CD spectrum of AChE enzyme individually and with different small molecules, also in combination was recorded. All spectra resulted from averaging three scans were corrected from the buffer blank. Results were expressed as molar ellipticity (°cm^2 dmol^-1) based on a mean amino acid residue weight (MRW) 110 Da for AChE. The molar ellipticity was determined as [θ obs] = {100 × (MRW) × θobs/cl}, where θ is the observed ellipticity in degrees at a given wavelength, c is the protein concentration in mgml^-1, and l is the path length in cm.
The relative percentages of the secondary structure elements were estimated in triplicates using Manager Suite software.

AChE [4] = target: T3, AChE; test: Fluorescence spectral studies of AChE incubated with molecules; settings: excitation 365 nm, control emission maxima […] nm, molecules at IC50 concentration, 10 min
Procedure: The fluorescence intensities were recorded using 0.5 mgml^-1 protein concentration with an excitation wavelength of 365 nm and an emission wavelength of 400–700 nm with slit widths of 20 nm using MY14410002 fluorescence spectrophotometer (Agilent Technologies, USA) at 25°C. Protein solutions of 0.5 mgml^-1 were prepared in 10 mM PBS at pH 7.7. Scans were performed at room temperature using a 1 cm path length quartz cuvette with 1 s differential integration time at a scan rate of 600 nm min^-1. […] The subsequent changes in fluorescence were measured at this wavelength.
Fig 21 a) Intrinsic fluorescence spectra of the AChE incubated with molecules. […] Scans were performed at 37°C using a 1 cm path length quartz cuvette with 1 s differential integration time at a scan rate of 600 nm min^-1. The excitation wavelength was 365 nm and emission wavelength was in the range of 400–700 nm. b) Intrinsic fluorescence spectra of the AChE incubated with molecules. […] Scans were performed at 37° C using a 1 cm path length quartz cuvette with 1 s differential integration time at a scan rate of 600 nm min^-1. The excitation wavelength was 365 nm and the emission wavelength was in the range of 400–700 nm.

immobilized AChE [5] = target: T2, immobilized AChE; test: biochemical; type: binding; settings: for Kd: read-out: Molecule 2 KD
Procedure: as §1, §2, §3, §4
Likewise, competitive experiments between different pairs was run by mixing 1:1 ratio of molecules and was fit to heterogeneous analyte model were studied. These experiments are helpful for determining the kinetics of a small molecule analyte in competition with other. Response contributions from both analytes are taken into account by considering molecular weight and concentrations of analytes. For competition binding experiments, pairing was done based on substrate-inhibitor and inhibitor-inhibitor interactions. […] Finally, naturally occurring crocin was also tested due to reports in the literature as a brain tonic for the Alzheimer's.

[6] = affinity fit, read-out: KD Affinity
[7] = two-state model, read-out: KD Kinetics
[8] = pair crocin (molecule 1) and ATCI (molecule 2), 1:1
[9] = pair tannic acid (molecule 1) and ATCI (molecule 2), 1:1

T2 sequence (O42275 24-633): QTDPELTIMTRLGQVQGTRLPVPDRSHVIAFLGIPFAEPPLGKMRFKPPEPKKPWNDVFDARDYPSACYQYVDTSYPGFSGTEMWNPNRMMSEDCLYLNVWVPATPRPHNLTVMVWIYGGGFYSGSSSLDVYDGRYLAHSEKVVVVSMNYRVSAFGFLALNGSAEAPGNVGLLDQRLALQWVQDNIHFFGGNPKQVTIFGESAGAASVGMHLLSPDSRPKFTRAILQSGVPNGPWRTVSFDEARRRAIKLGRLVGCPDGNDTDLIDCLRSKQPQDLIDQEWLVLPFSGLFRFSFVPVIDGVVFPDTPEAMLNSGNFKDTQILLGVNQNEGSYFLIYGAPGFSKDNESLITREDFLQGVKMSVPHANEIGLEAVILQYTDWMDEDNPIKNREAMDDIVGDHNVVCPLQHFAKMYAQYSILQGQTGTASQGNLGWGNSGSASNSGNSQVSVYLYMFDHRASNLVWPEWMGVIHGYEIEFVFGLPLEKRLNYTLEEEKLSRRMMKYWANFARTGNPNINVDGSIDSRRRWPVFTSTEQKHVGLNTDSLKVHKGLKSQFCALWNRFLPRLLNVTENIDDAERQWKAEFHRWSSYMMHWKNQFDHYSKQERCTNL
T3 sequence (O42275 24-633): as above
T1 sequence (O42275 24-633): as above

SMILES	IC50 [1]	Ka2 (immobilized AChE [2])	Kd2 (immobilized AChE [2])	Kd (immobilized AChE [2]; [6])	Ka1 (immobilized AChE [2]; two-state model)	Kd1 (immobilized AChE [2]; two-state model)	Kd (immobilized AChE [2]; [7])	Turns of AChE in presence of the molecule (AChE [3])	α helix of AChE in presence of the molecule (AChE [3])	Random of AChE in presence of the molecule (AChE [3])	β sheets of AChE in presence of the molecule (AChE [3])	change in fluorescence emission of AChE compared to control enzyme (AChE [4])	change in secondary structure of AChE compared to control enzyme (AChE [3])	also measured
C[C@@H]1O[C@@H](OC[C@H]2O[C@@H](Oc3c(-c4ccc(O)c(O)c4)oc4cc(O)cc(O)c4c3=O)[C@H](O)[C@@H](O)[C@@H]2O)[C@H](O)[C@H](O)[C@H]1O [Rutin hydrate, rutin hydrate]	1900 ± 90 µM	0.004468±1.6×10^−4 1/s	0.002058±1.6×10^−4 1/s	1110 µM	11.33 ± 0.25 M⁻¹ s⁻¹	0.04254 ± 0.0013 s⁻¹	1180 µM	0%	8.8±0.056%	40.7±0.27%	50.5±0.72%	redshift	–	–
CC(=O)SCC[N+](C)(C)C.[I-] [ATCI, acetylthiocholine iodide, reference compound]	–	12440 ± 9.6e-05 s⁻¹	–	2510 µM	76590 ± 12000 M⁻¹ s⁻¹	0.4167 ± 0.13 s⁻¹	2.23 µM	0%	5.9±0.035%	42.8±0.39%	51.3±0.70%	no change	increase in α-helix and a decline in β-sheets	Molecule 2 ka2 (immobilized AChE [5]): 92910 ± 43000 M⁻¹ s⁻¹; Molecule 2 ka2 (immobilized AChE [5]; [8]): 139500 ± 19000 M⁻¹ s⁻¹; Molecule 2 kd2 (immobilized AChE [5]; [8]): 0.06452 ± 0.0034 s⁻¹; Molecule 2 ka2 (immobilized AChE [5]; [9]): 1.529e+06 ± 3.4e+06 M⁻¹ s⁻¹; Kd (immobilized AChE [5]; [9]): 0.00016 µM; Kd (immobilized AChE [5]): 0.00989 µM
O[C@H]1[C@H]2c3cc4c(cc3CN3CCC(=C[C@@H]1O)[C@H]23)OCO4 [Lycorine hydrochloride, lycorine hydrochloride]	–	–	0.02658 ± 0.0061 s⁻¹	–	131.5 ± 6.3 M⁻¹ s⁻¹	0.3564 ± 0.011 s⁻¹	–	0%	7.2±0.045%	41.6±0.34%	51.2±0.72%	increase in the intensity at 415 nm	increase of α-helix	–
O=c1c(O)c(-c2ccc(O)c(O)c2)oc2cc(O)cc(O)c12 [Quercetin, quercetin]	–	0.006822±3.4×10^−4 1/s	0.004964±2.1×10^−4 1/s	–	117.6 ± 4.3 M⁻¹ s⁻¹	0.05923 ± 0.0028 s⁻¹	–	1.0±0.006%	3.1±0.010%	42.8±0.39%	53.2±0.75%	redshift	reduction in α-helix with an increase in β-sheets	–
Cn1c(=O)c2c(ncn2C)n(C)c1=O [Caffeine, caffeine, reference compound]	380 ± 15 µM	–	–	–	–	–	–	–	–	–	–	–	–	Kd (immobilized AChE [2]; KD Affinity, affinity fit): 7700 µM; Kd (immobilized AChE [2]; KD Kinetics, two-state model): 17.4 µM
O.Oc1cc(O)c2c(c1)O[C@H](c1ccc(O)c(O)c1)[C@@H](O)C2 [Catechin hydrate, catechin hydrate]	–	0.0158±7.1×10^−4 1/s	0.004173±1.1×10^−4 1/s	738 µM	76.33 ± 3.4 M⁻¹ s⁻¹	0.06336 ± 0.0042 s⁻¹	173 µM	0%	10±0.06%	41±0.29%	49±0.67%	redshift	–	IC50 ([1]; […] ATCI, PBS 200 mM pH 7.7, 37°C, mean ± SEM (n = 3), read-out: IC50): 90 ± 1 µM
C[N+](C)(C)CCOC(N)=O [Carbachol, carbachol, reference compound]	210 ± 15 µM	0.001509±2.6×10^−4 1/s	0.001298±1.1×10^−4 1/s	1150 µM	101000 ± 9700 M⁻¹ s⁻¹	0.05155 ± 0.0041 s⁻¹	0.236 µM	2.6±0.016%	4.0±0.02%	42.4±0.38%	51.0±0.69%	no change	increase in α-helix and a decline in β-sheets	–
